These results are taken from US8067424B2, “Selective inhibitors for cyclin-dependent kinases” (Emory University, priority 2007, dated 2011).

Assay type in all cases: biochemical
Assay [1] concerns the target PLK1 (Homo sapiens, UniProt P53350). Description: Kinase screen: PLK1 assay. How it is done: (§1) Generally, the same procedure was used for all assays. Since the total assay volume was 25.5 microliters, 0.5 microliters of inhibitors at 51× assay concentration were added to the plates before any other addition.
(§2) The basic procedure was to add 0.5 microliters inhibitor/control in DMSO to plate. Fifteen microliters of enzyme/substrate/buffer mix were added and incubated for 5 min. Ten microliters MgATP at the relevant concentration were added and incubated for 30 min. The assay was stopped by adding 5 microliters of 3% orthophosphoric acid. The assay was transferred to a p81 filter plate and read in a scintillation counter of 30 sec/well. Note that this assay procedure was not followed for MKK1, which instead involved a two-step assay, and PKC alpha, which required the addition of lipid vesicles.
(§3) (50-1000 cpm/pmole) and incubated for 30 min at room temperature. Assays were stopped by addition of 5 μl of 0.5 M (3%) orthophosphoric acid and then harvested onto P81 Unifilter plates with a wash buffer of 50 mM orthophosphoric acid.

The test system of assay [2] is CK2. Description: Kinase screen: CK2 assay. Conditions: for mean activity remaining (as a percentage of the original activity), CK 2: 10 micromolar compound. How it is done:
as §2, with “Generally, the same procedure was used for all assays. Since the total assay volume was 25.5 microliters, 0.5 microliters of inhibitors at 51× assay concentration were added to the plates before any other addition. […] The basic” for “The basic”, “30 min. […] The assay” for “30 min. The assay was stopped by adding 5 microliters of 3% orthophosphoric acid. The assay”, “lipid vesicles. CK2 assay: […]” for “lipid vesicles.”

Assay [3] addresses PKBα (Homo sapiens, UniProt P31749, S473D). Put plainly: Kinase screen: APH-PKBa-S473D assay. How it is done:
as §1, §2
APH-PKBa-S473D assay: APH-PKBa-S473D (5-20 mU diluted in 50 mM Tris pH 7.5, 0.1 mM EGTA, 0.1% b-mercaptoethanol, 1 mg/ml BSA) was assayed against a modified Crosstide peptide […] (SEQ ID NO: 4) in a final volume of 25.5 μl containing 50 mM Tris pH 7.5, 0.05% b-mercaptoethanol, 30 μM substrate peptide, 10 mM magnesium acetate and 0.005 mM [33P-g-ATP] (50-1000 cpm/pmole) and incubated for 30 min at room temperature. Assays were stopped by addition of 5 μl of 0.5 M (3%) orthophosphoric acid and then harvested onto P81 Unifilter plates with a wash buffer of 50 mM orthophosphoric acid.

Assay [4] concerns the target MARK3 (Homo sapiens, UniProt P27448). Put plainly: Kinase screen: MARK3 assay. How it is done:
as §1, §2
MARK3 assay: MARK3 (5-20 mU diluted in 50 mM Tris pH 7.5, 0.1 mM EGTA, 0.1% b-mercaptoethanol, 1 mg/ml BSA) was assayed against CHKtide substrate ([…]) (SEQ ID NO: 12) in a final volume of 25.5 μl containing 50 mM Tris pH 7.5, 0.05% b-mercaptoethanol, 300 μM substrate peptide, 10 mM magnesium acetate and 0.005 mM [33P-g-ATP] (50-1000 cpm/pmole) and incubated for 30 min at room temperature. Assays were stopped by addition of 5 μl of 0.5 M (3%) orthophosphoric acid and then harvested onto P81 Unifilter plates with a wash buffer of 50 mM orthophosphoric acid.

For assay [5], the target named is Lck (Homo sapiens, UniProt P06239). Description: Kinase screen: LCK assay. The method, then: as §1, §2
Lck, sequence (P06239 whole entry, species assumed): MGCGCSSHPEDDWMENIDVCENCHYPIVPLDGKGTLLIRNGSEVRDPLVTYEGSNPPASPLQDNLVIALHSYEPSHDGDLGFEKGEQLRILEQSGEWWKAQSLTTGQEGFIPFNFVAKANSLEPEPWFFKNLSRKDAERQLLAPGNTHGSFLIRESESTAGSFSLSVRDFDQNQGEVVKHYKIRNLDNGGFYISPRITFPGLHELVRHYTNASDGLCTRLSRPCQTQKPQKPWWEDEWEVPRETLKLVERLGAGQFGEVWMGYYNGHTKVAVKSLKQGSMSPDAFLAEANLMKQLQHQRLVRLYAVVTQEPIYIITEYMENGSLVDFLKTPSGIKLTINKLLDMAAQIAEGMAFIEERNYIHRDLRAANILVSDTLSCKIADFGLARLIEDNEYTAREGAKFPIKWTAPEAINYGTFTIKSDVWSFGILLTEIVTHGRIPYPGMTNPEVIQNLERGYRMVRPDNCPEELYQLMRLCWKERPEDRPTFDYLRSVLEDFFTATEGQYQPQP
(500-1000 cpm/pmole) and incubated for 15 min at room temperature Assays were stopped by addition of 5 μl of 0.5 M (3%) orthophosphoric acid and then harvested onto P81 Unifilter plates with a wash buffer of 50 mM orthophosphoric acid.

Assay [6] deals with S6K1 (Homo sapiens, UniProt P23443). Description: Kinase screen: S6K1/P70 S6K assay. The method, then: as §1, §2, §3
S6K1, sequence (P23443 whole entry, species assumed): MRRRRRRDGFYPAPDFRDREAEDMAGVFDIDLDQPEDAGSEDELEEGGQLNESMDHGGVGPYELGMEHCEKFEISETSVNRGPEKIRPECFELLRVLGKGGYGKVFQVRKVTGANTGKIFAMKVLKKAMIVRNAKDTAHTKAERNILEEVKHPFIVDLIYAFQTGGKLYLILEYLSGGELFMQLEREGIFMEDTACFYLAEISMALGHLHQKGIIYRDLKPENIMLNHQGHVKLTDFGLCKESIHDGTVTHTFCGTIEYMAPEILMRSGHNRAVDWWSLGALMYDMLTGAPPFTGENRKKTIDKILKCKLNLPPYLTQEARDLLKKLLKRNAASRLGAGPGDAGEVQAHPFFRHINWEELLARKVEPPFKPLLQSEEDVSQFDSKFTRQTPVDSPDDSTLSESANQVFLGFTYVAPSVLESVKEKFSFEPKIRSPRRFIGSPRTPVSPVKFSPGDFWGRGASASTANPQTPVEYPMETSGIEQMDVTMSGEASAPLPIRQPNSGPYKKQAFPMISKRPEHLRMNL
Assay [7] deals with T1, CDK9/cyclin T complex (Homo sapiens, UniProt P50750).
T1 construct: purchased Proqinase GmbH, Germany
T1 sequence (P50750 whole entry): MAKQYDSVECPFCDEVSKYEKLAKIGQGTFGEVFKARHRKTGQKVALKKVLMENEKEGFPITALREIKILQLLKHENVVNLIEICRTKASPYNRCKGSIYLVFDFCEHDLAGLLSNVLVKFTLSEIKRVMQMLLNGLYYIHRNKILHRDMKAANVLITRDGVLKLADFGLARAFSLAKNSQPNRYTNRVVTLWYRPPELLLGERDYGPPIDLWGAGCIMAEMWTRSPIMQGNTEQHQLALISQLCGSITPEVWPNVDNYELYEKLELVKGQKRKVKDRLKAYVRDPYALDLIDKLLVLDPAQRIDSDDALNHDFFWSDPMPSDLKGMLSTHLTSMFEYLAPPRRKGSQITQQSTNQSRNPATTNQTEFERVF
T1 sequence (O60563 whole entry partner): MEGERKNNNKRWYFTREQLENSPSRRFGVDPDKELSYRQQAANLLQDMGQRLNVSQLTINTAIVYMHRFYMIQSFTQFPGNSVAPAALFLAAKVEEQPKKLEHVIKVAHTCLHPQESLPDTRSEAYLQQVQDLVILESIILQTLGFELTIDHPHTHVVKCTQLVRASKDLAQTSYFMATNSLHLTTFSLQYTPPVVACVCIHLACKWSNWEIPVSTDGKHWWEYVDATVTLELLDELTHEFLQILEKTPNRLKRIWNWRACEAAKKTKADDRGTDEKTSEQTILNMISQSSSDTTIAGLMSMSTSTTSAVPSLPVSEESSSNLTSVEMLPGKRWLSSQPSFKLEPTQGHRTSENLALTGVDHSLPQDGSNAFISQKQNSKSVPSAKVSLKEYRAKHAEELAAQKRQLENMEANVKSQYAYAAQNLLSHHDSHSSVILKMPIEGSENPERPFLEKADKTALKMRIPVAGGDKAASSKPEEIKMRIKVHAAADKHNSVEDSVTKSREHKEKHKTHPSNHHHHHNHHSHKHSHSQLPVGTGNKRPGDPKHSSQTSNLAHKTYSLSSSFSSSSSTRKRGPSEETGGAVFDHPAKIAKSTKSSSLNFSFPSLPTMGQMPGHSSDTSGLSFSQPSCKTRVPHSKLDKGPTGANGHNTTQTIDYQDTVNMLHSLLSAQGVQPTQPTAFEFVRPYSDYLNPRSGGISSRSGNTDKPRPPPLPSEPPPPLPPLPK
Put plainly: CDK9/cyclin T kinase assay (as for CDK7). The settings on record: for remaining activity at 0.1 µM: 100 nM, mean of three (standard deviation), read-out: CDK9 % remaining kinase activity after incubation with 100 nM of compound; for IC50: Table 7, mean of three experiments, read-out: CDK9 kinase inhibition in vitro (IC50). A digest of the protocol: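 Run as the CDK7 protocol with 50 ng CDK2/cyclin A or 100 ng CDK9/cyclin T; compound 30 min at 30 °C, then 2 μM ATP final for 20 min at 30 °C. ATP depletion by luciferase luminescence (PKLight), triplicate, normalised to no-enzyme and enzyme controls.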

[8] abbreviates: 10 micromolar compound, read-out: mean activity remaining (as a percentage of the original activity), PLK 1.
The mark [9] stands for this setting: 0.5 h, 10 micromolar compound, read-out: mean activity remaining (as a percentage of the original activity), PKBa.
[10] abbreviates: 10 micromolar compound, read-out: mean activity remaining (as a percentage of the original activity), MARK 3.
Setting [11] is: 10 micromolar compound, read-out: mean activity remaining (as a percentage of the original activity), Lck.
Setting [12] is: 10 micromolar compound, read-out: mean activity remaining (as a percentage of the original activity), S6K1.

Like-named read-outs stand apart in the source and are kept apart here. A value given as a limit tells only on which side of the number the result lay.

PKBα, sequence (P31749 118-480 S473D limits assumed, species assumed): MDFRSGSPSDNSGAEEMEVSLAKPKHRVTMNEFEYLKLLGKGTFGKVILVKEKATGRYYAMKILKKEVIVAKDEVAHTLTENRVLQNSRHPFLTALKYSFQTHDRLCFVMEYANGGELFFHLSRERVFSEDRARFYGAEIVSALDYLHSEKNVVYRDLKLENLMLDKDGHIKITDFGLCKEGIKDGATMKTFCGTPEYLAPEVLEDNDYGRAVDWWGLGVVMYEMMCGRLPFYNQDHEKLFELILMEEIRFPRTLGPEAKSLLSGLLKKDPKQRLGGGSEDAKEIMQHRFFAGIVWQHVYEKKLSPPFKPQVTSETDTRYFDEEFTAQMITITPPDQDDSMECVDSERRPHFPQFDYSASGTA
PLK1, sequence (P53350 whole entry, species assumed): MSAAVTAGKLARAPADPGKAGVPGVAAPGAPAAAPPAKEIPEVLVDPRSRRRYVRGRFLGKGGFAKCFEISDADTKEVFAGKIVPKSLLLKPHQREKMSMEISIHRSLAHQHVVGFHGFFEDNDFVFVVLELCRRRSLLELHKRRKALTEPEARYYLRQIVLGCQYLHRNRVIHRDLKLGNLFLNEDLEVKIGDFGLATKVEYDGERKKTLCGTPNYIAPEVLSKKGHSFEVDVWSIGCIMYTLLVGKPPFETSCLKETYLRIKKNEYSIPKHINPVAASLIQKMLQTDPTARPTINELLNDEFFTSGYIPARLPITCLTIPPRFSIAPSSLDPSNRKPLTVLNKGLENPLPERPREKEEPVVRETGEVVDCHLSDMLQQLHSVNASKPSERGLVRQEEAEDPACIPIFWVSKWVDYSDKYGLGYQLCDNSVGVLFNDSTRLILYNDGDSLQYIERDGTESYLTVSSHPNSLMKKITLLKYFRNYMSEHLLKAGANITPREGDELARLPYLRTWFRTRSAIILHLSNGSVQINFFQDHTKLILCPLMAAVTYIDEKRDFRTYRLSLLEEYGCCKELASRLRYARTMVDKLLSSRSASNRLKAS
MARK3, sequence (P27448 whole entry, species assumed): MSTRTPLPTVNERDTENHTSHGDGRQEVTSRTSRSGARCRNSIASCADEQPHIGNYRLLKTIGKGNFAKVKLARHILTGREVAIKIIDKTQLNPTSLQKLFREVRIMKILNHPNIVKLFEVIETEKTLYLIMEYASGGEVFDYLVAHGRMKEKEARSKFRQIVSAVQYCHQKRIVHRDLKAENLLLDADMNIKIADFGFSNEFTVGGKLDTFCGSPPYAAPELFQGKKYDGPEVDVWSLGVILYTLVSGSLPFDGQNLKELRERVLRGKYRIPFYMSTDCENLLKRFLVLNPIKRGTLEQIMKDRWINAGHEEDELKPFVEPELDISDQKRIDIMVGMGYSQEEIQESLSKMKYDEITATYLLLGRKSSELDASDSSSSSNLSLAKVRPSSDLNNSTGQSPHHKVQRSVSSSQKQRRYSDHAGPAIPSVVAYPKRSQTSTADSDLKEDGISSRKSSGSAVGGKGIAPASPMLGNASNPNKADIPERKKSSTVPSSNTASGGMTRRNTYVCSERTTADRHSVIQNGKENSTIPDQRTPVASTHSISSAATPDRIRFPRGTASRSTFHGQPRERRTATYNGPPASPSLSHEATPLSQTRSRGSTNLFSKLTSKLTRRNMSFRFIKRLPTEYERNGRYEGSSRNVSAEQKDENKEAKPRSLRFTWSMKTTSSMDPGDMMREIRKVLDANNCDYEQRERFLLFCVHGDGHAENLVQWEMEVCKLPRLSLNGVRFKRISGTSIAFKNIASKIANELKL

For `CC(C)c1cnn2c(NCc3ccccc3F)cc(NCCCCCN)nc12` [ICEC-0232], the “mean activity remaining (as a percentage of the original activity), PLK 1” value in assay [1] (10 micromolar compound) stood at 55%. Besides, the “mean activity remaining (as a percentage of the original activity), CK 2” value in assay [2] worked out at 92%. Further, the “mean activity remaining (as a percentage of the original activity), PKBa” value in assay [3] (10 micromolar compound) is recorded as 75%. For the same compound, the “mean activity remaining (as a percentage of the original activity), MARK 3” value in assay [4] (10 micromolar compound) came out at 96%. Besides, the “mean activity remaining (as a percentage of the original activity), Lck” value in assay [5] (10 micromolar compound) is reported as 62%. Moreover, the “mean activity remaining (as a percentage of the original activity), S6K1” value in assay [6] (10 micromolar compound) stood at 42%.
Take `CC[C@H](CO)Nc1cc(NCc2ccccc2)n2ncc(C(C)C)c2n1` [ICEC0067]: the remaining activity at 10 µM amounted to 64% in assay [1] (setting [8]); 109% in assay [3] (setting [9]); 89% in assay [4] (setting [10]); 70% in assay [5] (setting [11]); 74% in assay [6] (setting [12]). Moreover, the remaining activity at 0.1 µM in assay [7] was 85%. For the same compound, in assay [7], the half-maximal inhibitory concentration (IC50) worked out at 100 nM. Also, the “mean activity remaining (as a percentage of the original activity), CK 2” value in assay [2] is reported as 87%.
In the case of `CC(C)c1cnn2c(NCc3ccccc3)cc(NCCCCCCCN)nc12` [BS-181], the remaining activity at 10 µM in assay [1] (PLK1, 10 μM, read-out: Mean Remaining Enzyme Activity (%)) came to 100%; in assay [3] (PKBα, 10 μM, read-out: Mean Remaining Enzyme Activity (%)), 82%; in assay [4] (MARK3, 10 μM, read-out: Mean Remaining Enzyme Activity (%)), 104%; in assay [5] (Lck, 10 μM, read-out: Mean Remaining Enzyme Activity (%)) it was 95%; in assay [6] (S6K1, 10 μM, read-out: Mean Remaining Enzyme Activity (%)), 95%. In addition, the “Mean Remaining Enzyme Activity (%)” value in assay [2] (CK2, 10 μM) worked out at 108%.
Consider `C=C[C@H](CO)Nc1cc(NCc2ccccc2)n2ncc(C(C)C)c2n1` [ICEC0065], for which the remaining activity at 10 µM turned out to be 56% in assay [1] (setting [8]); 116% in assay [3] (setting [9]); 93% in assay [4] (setting [10]); 74% in assay [5] (setting [11]); 78% in assay [6] (setting [12]). For the same compound, the remaining activity at 0.1 µM in assay [7] is 100%. Further, the IC50 in assay [7] is greater than 1000 nM. Moreover, in assay [2], the “mean activity remaining (as a percentage of the original activity), CK 2” value is listed as 94%.
`CC(C)c1cnn2c(NCc3ccccc3)cc(N[C@@H](CO)[C@H](O)CO)nc12` [ICEC0318, (3S)-3-(7-(Benzylamino)-3-isopropylpyrazolo[1,5-a]pyrimidin-5-ylamino)butane-1,2,4-triol]: the remaining activity at 10 µM in assay [1] (setting [8]) is 68%; in assay [3] (setting [9]) it was 103%; in assay [4] (setting [10]), 82%; in assay [5] (setting [11]), 85%; in assay [6] (setting [12]), 77%. In assay [7], the remaining activity at 0.1 µM came to 56%. In addition, the “mean activity remaining (as a percentage of the original activity), CK 2” value in assay [2] is 89%.

Usually remaining activity stands for the signal under treatment as a percentage of the control signal. The IC50 is the concentration that gives 50% inhibition.
